Marks after values point to notes of the source that are not given here.
Experiments:
[1] = human, in vivo
[2] = test system: alanine aminotransferase (ALT); experiment: Serum ALT level during 14-day VX-950 dosing; assay type: in vivo, human; conditions: all groups, elevated at baseline
Description: The serum alanine aminotransferase (ALT) level can be measured using commercially available methods. Mean ALT levels, elevated at baseline, decreased during dosing in all groups. Mean ALT levels increased, returned toward baseline, in all dose groups during follow up.

WT-HCV protease-SEAP = conditions: SCID mice expressing WT-HCV protease-SEAP; see WO 2005/025517; cited from earlier work
[3] = C208 Phase 2 study: safety, tolerability and discontinuations
genotype 1 hepatitis C = experiment: Phase 1b 14-day study of VX-950 alone or with peginterferon alfa-2a, followed by peginterferon alfa-2a/ribavirin: HCV RNA; assay type: in vivo, human
Description: This study was designed to provide information on the kinetics of HCV following treatment with VX-950 and peginterferon alfa-2a administered over 14 days.
This study randomized twenty treatment-naïve patients with chronic genotype 1 hepatitis C infection to three dosing arms (Table 6). At the completion of the 14-day study, 19 of 20 patients chose to begin peginterferon alfa-2a/ribavirin, starting within 5 days of completing the 14-day dosing period; as the other one declined to take the combination of Peg-IRN-2a and ribavirin. Clinic visits were conducted at the discretion of the investigators, after completion of the 1-week and 12-week study-mandated follow-up visits. Nineteen patients have been followed through 24 weeks after the completion of the study dosing. After discussion with the treating physicians, ten (4 in VX-950 and 6 in VX-950/peginterferon alfa-2a) patients stopped peginterferon alfa-2a/ribavirin treatment at 24 weeks.

[4] = test system: AST (aspartate aminotransferase); experiment: AST level upon administration of VX-950; assay type: in vivo
Description: ALT is an enzyme that is present in liver cells; when liver cells are damaged or inflamed, ALT leaks from the cell into the blood. Blood ALT levels are useful as a marker of liver inflammation or damage.

WT HCVpro = experiment: IFN dependent gene expression / IFNβ promoter activity in Sendai virus infected Huh7 cells; assay type: cell-based
Description: IFNβ promoter activity decreases in response to Sendai virus stimulation in the presence of WT HCVpro.

[5] = male, human, in vivo
Description: VX-950 was examined in a randomized, double-blind, placebo-controlled single-dose escalation study. 25 healthy male volunteers were enrolled and each received multiple single doses of VX-950 (at least 7 days apart, 3 doses of VX-950 at increasing dose levels) and 1 dose of placebo.
A dose escalation scheme was used that combined dose doubling and modified Fibonacci to be aggressive in the lower dose range and conservative in the higher dose range.
A pharmacokinetics analysis was performed using the statistical moment approach.

HCV genotype 1 = experiment: 14-day multiple-dose study in HCV genotype 1 subjects: HCV RNA (study VX04-950-101); assay type: in vivo, human
Description: Accordingly, applicants determined the changes in serum neopterin concentration as a marker of monocyte/macrophage activity during administration of an inhibitor of (HCV) NS3·4A protease. As described herein, VX-950 was administered for 14 days in a randomized, double blind, placebo controlled, multiple-dose study in 34 patients infected with HCV genotype 1. Patients received VX-950 450 mg q8h (n=10), 750 mg q8h (n=8), 1250 mg q12h (n=10), or placebo (n=6). Serum neopterin concentrations were measured by a quantitative competitive ELISA (ELItest® Neopterin, Brahms, Hennigsdorf, Germany) at pretreatment, at day 7 and 14, and at day 10 of follow-up. The lower limit of detection (LLD) was 2 nmol/I. HCV RNA was assessed at frequent intervals during the study by real-time PCR (COBAS TAQMAN™ HCV Test; linear dynamic range of 3.0 ×10^1 to 2.0 ×10^8 HCV RNA IU/ml; LLD of 10 HCV RNA IU/ml; Roche Diagnostics, Branchburg, N.J.).
All other 34 subjects completed the study.
The HCV positive subjects were tested post-treatment to monitor HCV RNA levels' return to baseline.

[6] = TVR 750 mg q8h + Peg-IFN alfa-2a + RBV (n = 40)
[7] = TVR 750 mg q8h + Peg-IFN alfa-2b + RBV (n = 42)
[8] = TVR 1125 mg q12h + Peg-IFN alfa-2a + RBV (n = 40)
[9] = TVR 1125 mg q12h + Peg-IFN alfa-2b + RBV (n = 39)
[10] = 1-week F/U, on-study, Peg-IFN-2a/RBV, N = 7 / 8 / 4 per group

CCC[C@H](NC(=O)[C@@H]1[C@H]2CCC[C@H]2CN1C(=O)[C@@H](NC(=O)[C@@H](NC(=O)c1cnccn1)C1CCCCC1)C(C)(C)C)C(=O)C(=O)NC1CC1 [VX-950]
overall proportion of TVR discontinuations for any reason ([1]; 4 weeks): 12% | Treatment discontinuations (all drugs), Any reason ([1]; 12 weeks): 24 (15) n (%) | Treatment discontinuations (all drugs), Due to AEs ([1]; 12 weeks): 13 (8) n (%) | Mean ALT levels [2]: decreased | Effect on elevated ALT levels (WT-HCV protease-SEAP): ameliorates elevated ALT levels | AE: Anemia [3, 6]: 18 (45) n (%) | AE: Asthenia [3, 6]: 11 (28) n (%) | AE: Decreased appetite [3, 6]: 8 (20) n (%) | AE: Diarrhea [3, 6]: 10 (25) n (%) | AE: Fatigue [3, 6]: 15 (38) n (%) | AE: Headache [3, 6]: 13 (33) n (%) | AE: Influenza-like illness [3, 6]: 15 (38) n (%) | AE: Nausea [3, 6]: 18 (45) n (%) | AE: Pruritus [3, 6]: 16 (40) n (%) | AE: Pyrexia [3, 6]: 8 (20) n (%) | AE: Rash [3, 6]: 26 (65) n (%) | AE: Vomiting [3, 6]: 7 (18) n (%) | AE: Anemia [3, 7]: 14 (33) n (%) | AE: Asthenia [3, 7]: 16 (38) n (%) | AE: Decreased appetite [3, 7]: 4 (10) n (%) | AE: Diarrhea [3, 7]: 9 (21) n (%) | AE: Fatigue [3, 7]: 15 (36) n (%) | AE: Headache [3, 7]: 18 (43) n (%) | AE: Influenza-like illness [3, 7]: 19 (45) n (%) | AE: Nausea [3, 7]: 14 (33) n (%) | AE: Pruritus [3, 7]: 21 (50) n (%) | AE: Pyrexia [3, 7]: 14 (33) n (%) | AE: Rash [3, 7]: 15 (36) n (%) | AE: Vomiting [3, 7]: 5 (12) n (%) | AE: Anemia [3, 8]: 14 (35) n (%) | AE: Asthenia [3, 8]: 7 (18) n (%) | AE: Decreased appetite [3, 8]: 6 (15) n (%) | AE: Diarrhea [3, 8]: 12 (30) n (%) | AE: Fatigue [3, 8]: 14 (35) n (%) | AE: Headache [3, 8]: 13 (33) n (%) | AE: Influenza-like illness [3, 8]: 11 (28) n (%) | AE: Nausea [3, 8]: 16 (40) n (%) | AE: Pruritus [3, 8]: 19 (48) n (%) | AE: Pyrexia [3, 8]: 8 (20) n (%) | AE: Rash [3, 8]: 16 (40) n (%) | AE: Vomiting [3, 8]: 7 (18) n (%) | AE: Anemia [3, 9]: 19 (49) n (%) | AE: Asthenia [3, 9]: 14 (36) n (%) | AE: Decreased appetite [3, 9]: 15 (39) n (%) | AE: Diarrhea [3, 9]: 13 (33) n (%) | AE: Fatigue [3, 9]: 15 (39) n (%) | AE: Headache [3, 9]: 16 (41) n (%) | AE: Influenza-like illness [3, 9]: 20 (51) n (%) | AE: Nausea [3, 9]: 22 (56) n (%) | AE: Pruritus [3, 9]: 22 (56) n (%) | AE: Pyrexia [3, 9]: 11 (28) n (%) | AE: Rash [3, 9]: 14 (36) n (%) | AE: Vomiting [3, 9]: 12 (31) n (%) | electrocardiographic or vital signs parameters ([3]; all T/PR arms): No relevant changes | HCV RNA below limit of detection (10 IU/mL) n (genotype 1 hepatitis C; [10]): 1 n | HCV RNA below limit of quantitation (30 IU/mL) n (genotype 1 hepatitis C; [10]): 3 n | HCV RNA below limit of quantitation (30 IU/mL) n (genotype 1 hepatitis C; 12-week F/U, on-study, Peg-IFN-2a/RBV, N = 7 / 8 / 4 per group): 6 n | Patients who achieved SVR (genotype 1 hepatitis C; 14 days of VX-950 optionally with Peg-INF, followed by Peg-INF/ribavirin for additional 22 or 46 weeks): 10 of 15 | Undetectable HCV RNA at 24-week off study peg-IFN-2a/RBV treatment N (genotype 1 hepatitis C; N = 7 / 8 / 4 per group): 7* N | Patients with undetectable HCV RNA at week 24 (genotype 1 hepatitis C; all patients who received VX-950 (alone or with peginterferon)): 15 patients | Antiviral activity (genotype 1 hepatitis C; as a single agent or in combination with peginterferon alfa-2a, 14 days): rapid and profound antiviral activity | Patients who achieved SVR (genotype 1 hepatitis C; at least 14 days of VX-950 (alone or with peginterferon), treated for 24 weeks in total): 7 of 10 | Patients who achieved SVR (genotype 1 hepatitis C; at least 14 days of VX-950 (alone or with peginterferon), treated for 48 weeks in total): 3 of 5 | SVR in a patient receiving a 2 week treatment of VX-950 (genotype 1 hepatitis C; in vivo): SVR was achieved | Undetectable HCV RNA at 12 weeks follow-up after stopping peg-IFN-2a/RBV (genotype 1 hepatitis C; patients who stopped peg-IFN-2a/RBV at week 24): 2 of 4 | AST levels [4]: decreased | IFN dependent gene expression (WT HCVpro; Sendai virus infected Huh7 cells): restores IFN dependent gene expression | IFNβ promoter activation (WT HCVpro; Sendai virus stimulation in the presence of WT HCVpro): overcomes the WT HCVpro mediated suppression of IFNβ promoter activation | VX-950 eliminated unchanged in the urine [5]: Less than 2% | Subjects with maximum change from baseline in HCV RNA >−1 to <0 log10 IU/mL (HCV genotype 1; 450 mg q8h, 14 days (n = 10)): 0 n (%) | Subjects with maximum change from baseline in HCV RNA >−2 to ≦−1 log10 IU/mL (HCV genotype 1; 450 mg q8h, 14 days (n = 10)): 0 n (%) | Subjects with maximum change from baseline in HCV RNA >−3 to ≦−2 log10 IU/mL (HCV genotype 1; 450 mg q8h, 14 days (n = 10)): 1 (10.0) n (%) | Subjects with maximum change from baseline in HCV RNA >−4 to ≦−3 log10 IU/mL (HCV genotype 1; 450 mg q8h, 14 days (n = 10)): 7 (70.0) n (%) | Subjects with maximum change from baseline in HCV RNA >−5 to ≦−4 log10 IU/mL (HCV genotype 1; 450 mg q8h, 14 days (n = 10)): 0 n (%) | Subjects with maximum change from baseline in HCV RNA ≧−5 log10 IU/mL (HCV genotype 1; 450 mg q8h, 14 days (n = 10)): 2 (20.0) n (%) | Subjects with maximum change from baseline in HCV RNA >−1 to <0 log10 IU/mL (HCV genotype 1; 750 mg q8h, 14 days (n = 8)): 0 n (%) | Subjects with maximum change from baseline in HCV RNA >−2 to ≦−1 log10 IU/mL (HCV genotype 1; 750 mg q8h, 14 days (n = 8)): 0 n (%) | Subjects with maximum change from baseline in HCV RNA >−3 to ≦−2 log10 IU/mL (HCV genotype 1; 750 mg q8h, 14 days (n = 8)): 0 n (%) | Subjects with maximum change from baseline in HCV RNA >−4 to ≦−3 log10 IU/mL (HCV genotype 1; 750 mg q8h, 14 days (n = 8)): 3 (37.5) n (%) | Subjects with maximum change from baseline in HCV RNA >−5 to ≦−4 log10 IU/mL (HCV genotype 1; 750 mg q8h, 14 days (n = 8)): 3 (37.5) n (%) | Subjects with maximum change from baseline in HCV RNA ≧−5 log10 IU/mL (HCV genotype 1; 750 mg q8h, 14 days (n = 8)): 2 (25.0) n (%) | Subjects with maximum change from baseline in HCV RNA >−1 to <0 log10 IU/mL (HCV genotype 1; 1250 mg q12h, 14 days (n = 10)): 0 n (%) | Subjects with maximum change from baseline in HCV RNA >−2 to ≦−1 log10 IU/mL (HCV genotype 1; 1250 mg q12h, 14 days (n = 10)): 0 n (%) | Subjects with maximum change from baseline in HCV RNA >−3 to ≦−2 log10 IU/mL (HCV genotype 1; 1250 mg q12h, 14 days (n = 10)): 1 (10.0) n (%) | Subjects with maximum change from baseline in HCV RNA >−4 to ≦−3 log10 IU/mL (HCV genotype 1; 1250 mg q12h, 14 days (n = 10)): 9 (90.0) n (%) | Subjects with maximum change from baseline in HCV RNA >−5 to ≦−4 log10 IU/mL (HCV genotype 1; 1250 mg q12h, 14 days (n = 10)): 0 n (%) | Subjects with maximum change from baseline in HCV RNA ≧−5 log10 IU/mL (HCV genotype 1; 1250 mg q12h, 14 days (n = 10)): 0 n (%) | Subjects with a 3 log10 reduction in HCV-RNA (HCV genotype 1; within the first three days of treatment, of the 28 subjects receiving VX-950): 26

Source: patent US8871812B2, “Therapeutic regimen comprising PEG-interferon, ribavirin and VX-950 for the treatment of hepatitis” (priority 2008, dated 2014)
